Reference: US12358970B2, “Methods of exogenous drug activation of chemical-induced signaling complexes expressed in engineered cells in vitro and in vivo” (Seattle Children's Hospital, priority 2016, dated 2025)
Entries after “also recorded” stand apart in the source; their conditions may differ.

Tests used:
[1] = system: gene targeted CD4+ T cells expressing GFP-FOXP3 and IL2R-CISC V3; experiment: Targeted knock-in of MND promoter and CISC into FOXP3 locus, enrichment of gene targeted cells (GFP-FOXP3 flow cytometry); type: cell-based; details: 15 days culture; 10 nM ligand
Excerpt: The described targeting approach integrates a promoter and both components of an IL2R-CISC V3 into the FOXP3 locus in line with a GFP fusion to the native FOXP3 gene. This architecture is intended to allow for ligand-induced selection of cells which have undergone an accurate gene targeting event.
FIG. 26 depicts a schematic diagram showing an experimental design of targeted knock-in of MND promoter and CISC. This represents an experimental schematic of how a CRISP/Cas9 nuclease is used to induce targeted integration of the cassettes from FIG. 25 into the FOXP3 locus, followed by expansion of the gene targeted cells in the indicated IL2R-CISC ligand.
Following targeted integration into the FOXP3 locus utilizing the indicated approaches (no targeting, or RNP plus each of the cassettes described in FIG. 25), cells were cultured in the indicated conditions for 15 days, and then analyzed by flow cytometry for GFP-FOXP3 expression. […] Flow panels are representative of IL2R-CISC GFP-FOXP3 expression by cells cultured in rapamycin.
Following targeted integration into the FOXP3 locus utilizing the indicated approaches, cells were cultured in the indicated conditions for 15 days, and then analyzed by flow cytometry for GFP-FOXP3 expression.
In addition, the targeted knock-in of MND promoter and CISC was tested to enrich and/or expand gene targeted T cells. […]

[2] = system: STAT5 phosphorylation in IL2R-CISC expressing T cells; experiment: phospho-STAT5 signaling after 20 days of culture; type: cell-based, human; details: mock, GFP and IL2R-CISC cell types
[3] = system: IL2R-CISC expressing primary human T-cells; experiment: Selective enrichment of IL2R-CISC expressing T cells, flow cytometry of cis-linked GFP/mCherry marker; type: cell-based; details: for mCherry positive cells: IL2R-CISC V3 cells, by 15 days culture in the ligand, starting transduced population 64% mCherry positive
Experimental: Each architecture of IL2R-CISC (i.e. 1210, 1211, and 1233) was cis-linked together with GFP using 2A sequences, and placed under the control of an MND promoter in a lentiviral expression cassette (as schematized in FIG. 5, bottom). Lentiviral particles from each IL2R-CISC architecture were generated and used to transduce primary human T-cells.
Lentiviral particles from each IL2R-CISC architecture were generated and used to transduce primary human T-cells. CD4+ T cells were activated for 60 hours. […] Lentivirus was transduced with or without beads, using 15 μL of IL2R-CISC and 3 μL of MND-GFP control with protamine sulfate at 4 μg/mL (0.5 mL medium) in a 24-well dish. The cells were then spinoculated at 800 g for 30 minutes at 33° C. followed by the addition of 1.5 mL medium after 4 hours of incubation. […] The GFP signal was determined and the IL2R-CISC level of transduced T cells was determined.
The T cell viability was determined and the expression of GFP+ population and IL2R-CISC expression was determined by using anti-FRB antibody and a secondary APC antibody.

[4] = system: IL2R-CISC V3 expressing human CD4+ T cells; experiment: Expansion of IL2R-CISC expressing cells in culture (cell numbers); type: cell-based; details: for Dose inducing the most robust cell expansion / Cell expansion: 30 days
[5] = system: Akt activation in IL2R-CISC human CD4+ T cells; experiment: Western blot for Akt activation; type: cell-based; details: 15 days rapamycin 1 nM, 48 h cytokine starvation, stimulation with rapamycin 100 nM for 20 minutes
Experimental: IL2R-CISC human CD4+ T cells were analyzed following 15 days of rapamycin treatment at 1 nM, following by cytokine starvation for 48 hours.

| SMILES | Enrichment of FOXP3 expressing (gene targeted) cells [1] | Phosphorylation of STAT5 in response to treatment [2] | Enrichment for IL2R-CISC expression read out by cis-linked GFP marker ([3]; 1233 architecture, 4 days post transduction, 2 days in rapamycin alone (1 nM)) | Enrichment of the GFP marker ([3]; 1233 architecture, 6 days post transduction, 4 days in rapamycin) | Enrichment of GFP+ cells ([3]; 1233 architecture, 9 days post transduction, 7 days in rapamycin) | Cells expressing the 1233 IL2R-CISC enriched to % of the cell population (GFP+) ([3]; 1233 architecture, 17 days post transduction, 15 days culture in rapamycin alone (1 nM)) [%] | mCherry positive cells [3] [%] | Expansion of mCherry positive cell numbers ([4]; 25 days) | Dose inducing the most robust cell expansion ([4]; 1 nM rapamycin (vs 10 nM)) | Cell expansion ([4]; rapamycin 1 nM and 10 nM) | Akt activation [5] | CD4+ T cell survival ([3]; IL2R-CISC V3 construct, in response to AP21967 (FIG. 15)) | Dose inducing the most robust cell expansion ([4]; 100 nM AP21967 (vs 10 nM)) | Cell expansion ([4]; AP21967 10 nM and 100 nM) |
| --- | --- | --- | --- | --- | --- | --- | --- | --- | --- | --- | --- | --- | --- | --- |
| CO[C@H]1C[C@@H]2CC[C@@H](C)[C@@](O)(O2)C(=O)C(=O)N2CCCC[C@H]2C(=O)O[C@H]([C@H](C)C[C@@H]2CC[C@@H](O)[C@H](OC)C2)CC(=O)[C@H](C)/C=C(\C)[C@@H](O)[C@@H](OC)C(=O)[C@H](C)C[C@H](C)/C=C/C=C/C=C/1C [rapamycin, (3S,6R,7E,9R,10R,12R,14S,15E,17E,19E,21S,23S,26R,27R,34aS)-9,10,12,13,14,21,22,23,24,25,26,27,32,33,34,34a-hexadecahydro-9,27-dihydroxy-3-[(1R)-2-[(1S,3R,4R)-4-hydroxy-3-methoxycyclohexyl]-1-methylethyl]-10,21-dimethoxy-6,8,12,14,20,26-hexamethyl-23,27-epoxy-3H-pyrido[2,1-c][1,4] oxaazacyclohentriacontine-1,5,11,28,29 (4H,6H,31H)-pentone] | substantial enrichment of FOXP3 expressing cells | only IL2R-CISC expressing cells respond to rapamycin with phosphorylation of STAT5 | enriched for IL2R-CISC expression; also recorded: beginning to enrich for IL2R-CISC expression | further enrichment of the GFP marker for 1233 | further enrichment of the 1233 GFP+ cells | 97 | > 93 | significant rapamycin-induced expansion | most robust cell expansion | significant rapamycin-induced expansion | Akt activation | – | – | – |
| CO[C@H]1[C@@H](O)[C@H](C)C[C@H](C)/C=C/C=C/C=C(\C)[C@@H](c2c[nH]c3c(C)cccc23)C[C@@H]2CC[C@@H](C)[C@@](O)(O2)C(=O)C(=O)N2CCCC[C@H]2C(=O)O[C@H]([C@H](C)C[C@@H]2CC[C@@H](O)[C@H](OC)C2)C[C@H](O)[C@H](C)/C=C(\C)[C@H]1O [AP21967, C-16-(S)-7-methylindolerapamycin] | substantial enrichment of FOXP3 expressing cells | – | – | – | – | – | > 93 | – | – | – | – | promotes human CD4+ T cell survival | most robust cell expansion | promotes CD4+ T cell proliferation; also recorded: significant AP21967-induced expansion |
